Measured values published in patent US20250367209A1 (SOUTHERN RESEARCH INSTITUTE, priority 2022, published 2025).

Tests used:
full-length Tau = full-length Tau (Homo sapiens (Human), UniProt P10636); experiment: Isothermal titration calorimetry, full-length Tau; type: binding
Excerpt: Human Fyn-SH3 domain with GST-tag at the N-terminus and a Strep-tag II ([…]) at the C-terminus (GST-Fyn-SH3-Strep) was cloned into pPR-IBA1 vector (IBA Lifesciences) (Cochran, et al. (2014) J. Biomol. Screen. 19, 1338-1349). Codon-optimized human 4R2N Tau for E. coli expression with a Strep-tag II at the C-terminus (His-Tau-Strep) was cloned into pET-28a(+) vector (Novagen). The constructs were transformed into E. coli BL-21(DE3) competent cells (Novagen). For GST-Fyn-SH3-Strep purification, a single colony was inoculated in Luria-Bertani (LB) broth at 37° C. overnight. 10 mL cell culture was added into 500 mL LB medium and cultured at 37° C. 0.5 mM Isopropyl β-D-1-thiogalactopyranoside (IPTG) was added into the culture when OD600 reached 0.7. Cells were further cultured at 25° C. for 4 hours and harvested. Cell pellet was resuspended in lysis buffer (20 mM Tris pH 7.9, 300 mM NaCl, 1 mM TCEP) with 1 tablet of EDTA-free protease inhibitors (ThermoFisher) and 1 mg/ml lysozyme. Cells were disrupted by sonication and debris was removed by centrifugation at 9500 rpm for 1 hour. Supernatant was loaded onto a glutathione-sepharose column (Cytiva). The column was washed in lysis buffer and protein eluted in lysis buffer containing 25 mM reduced glutathione. For His-Tau-Strep protein purification, cells were inoculated in LB broth medium and cultured at 37° C. overnight. A 10 mL overnight culture was added to 500 mL of auto-induction medium (Studier, F. W. (2005) Protein Expr Purif 41, 207-34) and cells were cultured at 37° C. for about 5 hours. The temperature was lowered to 18° C., and cells were cultured overnight. Cells were harvested and resuspended in lysis buffer with 20 mM imidazole, protease inhibitors, and lysozyme. Cells were disrupted by sonication and cell pellets were spun down at 9500 rpm for 1 hour. Supernatant was loaded onto Ni-NTA column (Cytiva) and the column was washed in lysis buffer with 20 mM imidazole. His-Tau-Strep protein was eluted in lysis buffer containing 400 mM imidazole. Both eluted GST-Fyn-SH3-Strep and His-Tau-Strep protein solutions were passed through G-25 desalting column (Cytiva) with lysis buffer and loaded onto high capacity Strep-Tactin column (IBA Lifesciences). The columns were washed in Buffer W (IBA Life sciences) and proteins were eluted in Buffer E (IBA life sciences). The eluted proteins were passed through G-25 desalting column again. […]
Purified full-length Tau and FynSH3 were dialyzed into 20 mM Tris and 150 mM NaCl, pH 8.0 with Slide-A-Lyzer G2 Dialysis Cassettes with 10K MWCO (ThermoFisher #87729). […] Protein concentrations were measured on a Nanodrop2000 (ThermoFisher) based on absorbance at 280 nm. […]

Tau-PxxP5/6 = Tau-PxxP5/6 (Homo sapiens (Human), UniProt P10636); experiment: Isothermal titration calorimetry, Tau-PxxP5/6 peptide; type: binding
Protocol: ITC experiments were performed on an Auto-iTC200 system (Malvern Instruments, Westborough, MA). ITC sample cell contained ˜120 μM full-length Tau, FynSH3, or Tau-PxxP5/6 (titrand), and the syringe contained 1 mM compound no. 69 (titrant). Each titration experiment consisted of 16 injections of […] of titrant into titrand at 25° C. Background mixing heat was determined from injections of titrant into the same buffer without titrand. Data analysis was performed using the built-in analysis module in Origin 7 provided by the ITC manufacturer. The normalized titration heat was fitted to a “one set of sites” model to determine the best-fit binding parameters.

Chain of full-length Tau (P10636 other isoform, or with tags, fused parts or gaps): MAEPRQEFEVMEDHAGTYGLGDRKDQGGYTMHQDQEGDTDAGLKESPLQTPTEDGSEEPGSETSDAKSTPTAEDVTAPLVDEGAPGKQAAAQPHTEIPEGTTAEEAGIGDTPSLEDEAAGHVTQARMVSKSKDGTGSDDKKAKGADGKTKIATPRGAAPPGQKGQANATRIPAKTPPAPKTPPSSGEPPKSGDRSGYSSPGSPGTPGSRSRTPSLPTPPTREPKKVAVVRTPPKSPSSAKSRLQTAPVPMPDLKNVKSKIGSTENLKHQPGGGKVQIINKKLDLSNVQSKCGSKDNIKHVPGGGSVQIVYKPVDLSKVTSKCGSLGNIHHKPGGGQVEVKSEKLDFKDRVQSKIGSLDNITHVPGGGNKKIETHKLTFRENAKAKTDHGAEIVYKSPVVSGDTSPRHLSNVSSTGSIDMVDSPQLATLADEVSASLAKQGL

Which “ΔG, ITC with full-length Tau” value (full-length Tau; 25° C.) does the source give for `O=C(CN1CCOc2ccccc21)Nc1nnc(-c2ccccn2)[nH]1` [compound no. 69] here?
Its value is -6.7 kcal/mol.

And the “ΔH, ITC with full-length Tau” value (full-length Tau; 25° C.)?
Its value is -1.5 kcal/mol.

What about the Kd (full-length Tau; 25° C., read-out: Kd, ITC with full-length Tau) of the same compound?
The Kd was 11.9 µM.

And the “n, ITC with full-length Tau” value (full-length Tau; one set of sites model)?
The value was 0.9.

What about the “interaction with Tau-PxxP5/6 peptide, ITC” value (Tau-PxxP5/6) of the same compound?
The value was “No interaction was observed”.
